Data from BigSolDB 2.1.

CN(C)CCC=C1c2ccccc2CCc2ccccc21.Cl
Conditions | solubility (mole fraction)
in 2-butanone, 283.23 K | 0.00254
in 2-butanone, 288.16 K | 0.00275
in 2-butanone, 293.2 K | 0.00304
in 2-butanone, 298.15 K | 0.00338
in 2-butanone, 303.16 K | 0.00375
in 2-butanone, 308.2 K | 0.00415
in 2-butanone, 313.15 K | 0.00462
in 2-butanone, 318.67 K | 0.00518
in 2-butanone, 323.35 K | 0.00584
in DMF, 283.86 K | 0.03
in DMF, 288.15 K | 0.032
in DMF, 293.05 K | 0.0353
in DMF, 298.04 K | 0.0387
in DMF, 303.05 K | 0.0425
in DMF, 308.17 K | 0.047
in DMF, 313.3 K | 0.0519
in DMF, 318.16 K | 0.0571
in DMF, 323 K | 0.0633
in THF, 283.09 K | 0.000628
in THF, 288.07 K | 0.000755
in THF, 293.82 K | 0.000884
in THF, 298.23 K | 0.00101
in THF, 303.1 K | 0.00116
in THF, 309.04 K | 0.00135
in THF, 313.13 K | 0.00152
in THF, 317.96 K | 0.00174
in THF, 323.16 K | 0.00196
in acetone, 283.17 K | 0.00226
in acetone, 288.13 K | 0.00252
in acetone, 293.2 K | 0.00282
in acetone, 298.07 K | 0.00316
in acetone, 303.21 K | 0.00354
in acetone, 308.19 K | 0.00398
in acetone, 313.2 K | 0.00448
in acetone, 318.2 K | 0.00503
in acetone, 323.1 K | 0.00565
in acetonitrile, 283.19 K | 0.00773
in acetonitrile, 288.13 K | 0.0089
in acetonitrile, 293.2 K | 0.0102
in acetonitrile, 298.19 K | 0.0118
in acetonitrile, 303.16 K | 0.0136
in acetonitrile, 308.13 K | 0.0157
in acetonitrile, 313.17 K | 0.0183
in acetonitrile, 318.13 K | 0.0212
in acetonitrile, 323.17 K | 0.0249
in cyclohexanone, 282.93 K | 0.00512
in cyclohexanone, 288.07 K | 0.00585
in cyclohexanone, 293.11 K | 0.0066
in cyclohexanone, 298.43 K | 0.00743
in cyclohexanone, 303.09 K | 0.00829
in cyclohexanone, 308.26 K | 0.00952
in cyclohexanone, 313.27 K | 0.011
in cyclohexanone, 319.7 K | 0.0128
in cyclohexanone, 323.1 K | 0.0144
in isobutanol, 283.25 K | 0.0281
in isopentanol, 283.17 K | 0.0122
in isopentanol, 288.19 K | 0.0159
in isopentanol, 293.17 K | 0.0202
in isopentanol, 298.2 K | 0.0256
in isopentanol, 303.23 K | 0.0326
in isopentanol, 308.17 K | 0.0416
in isopentanol, 313.15 K | 0.0532
in isopentanol, 318.2 K | 0.0671
in isopentanol, 323.17 K | 0.0827
in isopropanol, 283.16 K | 0.00585
in isopropanol, 288.35 K | 0.00786
in isopropanol, 293.16 K | 0.0102
in isopropanol, 298.16 K | 0.0133
in isopropanol, 303.05 K | 0.0177
in isopropanol, 308.06 K | 0.0239
in isopropanol, 313.54 K | 0.034
in isopropanol, 318.16 K | 0.0456
in isopropanol, 323.3 K | 0.0592
in n-butanol, 283.1 K | 0.0203
in n-butanol, 288.2 K | 0.0261
in n-butanol, 293.13 K | 0.0333
in n-butanol, 298.15 K | 0.042
in n-butanol, 303.4 K | 0.0537
in n-butanol, 308.2 K | 0.0662
in n-butanol, 313.15 K | 0.0803
in n-butanol, 318.16 K | 0.0953
in n-butanol, 323.23 K | 0.112
in n-pentanol, 288.23 K | 0.0366
in n-pentanol, 293.21 K | 0.0456
in n-pentanol, 298.07 K | 0.0562
in n-pentanol, 303.07 K | 0.0701
in n-pentanol, 308.2 K | 0.0855
in n-pentanol, 313.16 K | 0.1
in n-pentanol, 318.07 K | 0.117
in n-pentanol, 323.07 K | 0.133
in n-propanol, 283.17 K | 0.0266
in n-propanol, 288.17 K | 0.0349
in n-propanol, 293.16 K | 0.0442
in n-propanol, 298.1 K | 0.0557
in n-propanol, 303.07 K | 0.0691
in n-propanol, 308.24 K | 0.0851
in n-propanol, 313.16 K | 0.1
in n-propanol, 318.07 K | 0.116
in n-propanol, 323.2 K | 0.13
in sec-butanol, 283.2 K | 0.00725
in sec-butanol, 288.2 K | 0.00934
in sec-butanol, 293.21 K | 0.0121
in sec-butanol, 298.1 K | 0.0156
in sec-butanol, 303.17 K | 0.0207
in sec-butanol, 308.13 K | 0.0278
in sec-butanol, 313.2 K | 0.0367
in sec-butanol, 318.17 K | 0.0483
in sec-butanol, 323.2 K | 0.0637
